Tests used:
Assay type in all cases: in vivo
[1] = test system: barnyardgrass (Echinochloa crus-galli); assay: Test C preemergence, plant response rating; settings: Preemergence
[2] = test system: speedwell (bird's-eye speedwell, Veronica persica); assay: Test C postemergence, plant response rating; settings: for Speedwell plant response rating: scale 0 to 100 (0 no effect, 100 complete control)
In short: (§1)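 Both timings shared one formulation, a non-phytotoxic solvent mixture with surfactant, and a greenhouse period of 13 to 15 d. Preemergence used seeded loam/sand or silt loam soil, postemergence used 2 to 18 cm plants; visual ratings ran from 0 (no effect) to 100 (complete control).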

[3] = test system: Canada thistle (Cirsium arvense); assay: Test C postemergence, plant response rating; settings: for Canada Thistle plant response rating: scale 0 to 100 (0 no effect, 100 complete control)
In short: as §1

[4] = test system: wild mustard (Sinapis arvensis); assay: Test C postemergence, plant response rating; settings: for Mustard, Wild plant response rating: scale 0 to 100 (0 no effect, 100 complete control)
In short: as §1

[5] = test system: pigweed, palmer (palmer pigweed, Amaranthus palmeri); assay: Test C postemergence, plant response rating; settings: for Pigweed, Palmer plant response rating: scale 0 to 100 (0 no effect, 100 complete control)
In short: as §1

[6] = test system: buckwheat, wild (wild buckwheat, Polygonum convolvulus); assay: Test C postemergence, plant response rating; settings: for Buckwheat, Wild plant response rating: scale 0 to 100 (0 no effect, 100 complete control)
In short: as §1

[7] = test system: field violet (Viola arvensis); assay: Test C postemergence, plant response rating; settings: for Field Violet plant response rating: scale 0 to 100 (0 no effect, 100 complete control)
In short: as §1

[8] = test system: windgrass (Apera spica-venti); assay: Test C postemergence, plant response rating
In short: as §1

[9] = test system: nightshade (eastern black nightshade, Solanum ptycanthum); assay: Test C postemergence, plant response rating; settings: for Nightshade plant response rating: scale 0 to 100 (0 no effect, 100 complete control)
In short: as §1

[10] = test system: geranium, cutleaf (cutleaf geranium, Geranium dissectum); assay: Test C postemergence, plant response rating; settings: for Geranium, Cutleaf plant response rating: scale 0 to 100 (0 no effect, 100 complete control)
In short: as §1

[11] = test system: field poppy (Papaver rhoeas); assay: Test C postemergence, plant response rating; settings: for Field Poppy plant response rating: scale 0 to 100 (0 no effect, 100 complete control)
In short: as §1

[12] = test system: wild poinsettia (Euphorbia heterophylla); assay: Test C preemergence, plant response rating
[13] = test system: windgrass (Apera spica-venti); assay: Test C preemergence, plant response rating
[14] = test system: oat, wild (wild oat Avena fatua); assay: Test C preemergence, plant response rating
[15] = test system: nightshade (eastern black nightshade, Solanum ptycanthum); assay: Test C preemergence, plant response rating
[16] = test system: surinam grass (Brachiaria decumbens); assay: Test C preemergence, plant response rating
[17] = test system: johnsongrass (Sorghum halepense); assay: Test C preemergence, plant response rating
[18] = test system: galium (catchweed bedstraw, Galium aparine); assay: Test C preemergence, plant response rating
[19] = test system: pigweed, palmer (palmer pigweed, Amaranthus palmeri); assay: Test C preemergence, plant response rating

Q: What does the source list for FC(F)(F)CCCCc1c(Br)cccc1Oc1ncc(Cl)cn1 [Compound 138]?
A: Plant response rating, Barnyardgrass ([1]; 125 g ai/ha, scale of 0 to 100): 95; Plant response rating, Barnyardgrass ([1]; 16 g ai/ha, scale 0 to 100): 20; Plant response rating, Barnyardgrass ([1]; 31 g ai/ha, scale 0 to 100): 40; Plant response rating, Barnyardgrass ([1]; 62 g ai/ha, scale 0 to 100): 80; Plant response rating, Speedwell ([2]; 16 g ai/ha, scale of 0 to 100): 95; Plant response rating, Speedwell ([2]; 31 g ai/ha, scale 0 to 100): 100; Speedwell plant response rating ([2]; 62 g ai/ha): 100; Speedwell plant response rating ([2]; 125 g ai/ha): 100; Plant response rating, Canada Thistle ([3]; 16 g ai/ha, scale of 0 to 100): 80; Plant response rating, Canada Thistle ([3]; 31 g ai/ha, scale 0 to 100): 80; Canada Thistle plant response rating ([3]; 62 g ai/ha): 90; Canada Thistle plant response rating ([3]; 125 g ai/ha): 95; Plant response rating, Mustard, Wild ([4]; 16 g ai/ha, scale of 0 to 100): 100; Plant response rating, Mustard, Wild ([4]; 31 g ai/ha, scale 0 to 100): 100; Mustard, Wild plant response rating ([4]; 62 g ai/ha): 100; Mustard, Wild plant response rating ([4]; 125 g ai/ha): 100; Plant response rating, Pigweed, Palmer ([5]; 16 g ai/ha, scale of 0 to 100): 75; Plant response rating, Pigweed, Palmer ([5]; 31 g ai/ha, scale 0 to 100): 80; Pigweed, Palmer plant response rating ([5]; 62 g ai/ha): 90; Pigweed, Palmer plant response rating ([5]; 125 g ai/ha): 98; Plant response rating, Buckwheat, Wild ([6]; 16 g ai/ha, scale of 0 to 100): 70; Plant response rating, Buckwheat, Wild ([6]; 31 g ai/ha, scale 0 to 100): 80; Buckwheat, Wild plant response rating ([6]; 62 g ai/ha): 100; Buckwheat, Wild plant response rating ([6]; 125 g ai/ha): 100; Plant response rating, Field Violet ([7]; 16 g ai/ha, scale of 0 to 100): 90; Plant response rating, Field Violet ([7]; 31 g ai/ha, scale 0 to 100): 95; Field Violet plant response rating ([7]; 62 g ai/ha): 100; Field Violet plant response rating ([7]; 125 g ai/ha): 100; Plant response rating, Windgrass ([8]; 16 g ai/ha, scale of 0 to 100): 0; Plant response rating, Windgrass ([8]; 31 g ai/ha, scale 0 to 100): 15; Windgrass plant response rating ([8]; 125 g ai/ha, scale 0 to 100 (0 no effect, 100 complete control)): 50; Plant response rating, Nightshade ([9]; 16 g ai/ha, scale of 0 to 100): 75; Plant response rating, Nightshade ([9]; 31 g ai/ha, scale 0 to 100): 80; Nightshade plant response rating ([9]; 62 g ai/ha): 100; Nightshade plant response rating ([9]; 125 g ai/ha): 98; Plant response rating, Geranium, Cutleaf ([10]; 16 g ai/ha, scale of 0 to 100): 30; Plant response rating, Geranium, Cutleaf ([10]; 31 g ai/ha, scale 0 to 100): 35; Geranium, Cutleaf plant response rating ([10]; 62 g ai/ha): 55; Geranium, Cutleaf plant response rating ([10]; 125 g ai/ha): 60; Plant response rating, Field Poppy ([11]; 16 g ai/ha, scale of 0 to 100): 100; Plant response rating, Field Poppy ([11]; 31 g ai/ha, scale 0 to 100): 100; Field Poppy plant response rating ([11]; 62 g ai/ha): 100; Field Poppy plant response rating ([11]; 125 g ai/ha): 100; Plant response rating, Poinsettia, Wild ([12]; 31 g ai/ha, scale 0 to 100): 0; Plant response rating, Poinsettia, Wild ([12]; 62 g ai/ha, scale 0 to 100): 5; Plant response rating, Poinsettia, Wild ([12]; 125 g ai/ha, scale of 0 to 100): 50; Plant response rating, Windgrass ([13]; 31 g ai/ha, scale 0 to 100): 100; Plant response rating, Windgrass ([13]; 62 g ai/ha, scale 0 to 100): 100; Plant response rating, Windgrass ([13]; 125 g ai/ha, scale of 0 to 100): 100; Plant response rating, Oat, Wild ([14]; 31 g ai/ha, scale 0 to 100): 0; Plant response rating, Oat, Wild ([14]; 62 g ai/ha, scale 0 to 100): 5; Plant response rating, Oat, Wild ([14]; 125 g ai/ha, scale of 0 to 100): 30; Plant response rating, Nightshade ([15]; 31 g ai/ha, scale 0 to 100): 50; Plant response rating, Nightshade ([15]; 62 g ai/ha, scale 0 to 100): 80; Plant response rating, Nightshade ([15]; 125 g ai/ha, scale of 0 to 100): 80; Plant response rating, Surinam Grass ([16]; 31 g ai/ha, scale 0 to 100): 65; Plant response rating, Surinam Grass ([16]; 62 g ai/ha, scale 0 to 100): 65; Plant response rating, Surinam Grass ([16]; 125 g ai/ha, scale of 0 to 100): 75; Plant response rating, Johnsongrass ([17]; 31 g ai/ha, scale 0 to 100): 0; Plant response rating, Johnsongrass ([17]; 62 g ai/ha, scale 0 to 100): 50; Plant response rating, Johnsongrass ([17]; 125 g ai/ha, scale of 0 to 100): 60; Plant response rating, Galium ([18]; 31 g ai/ha, scale 0 to 100): 0; Plant response rating, Galium ([18]; 62 g ai/ha, scale 0 to 100): 5; Plant response rating, Galium ([18]; 125 g ai/ha, scale of 0 to 100): 5; Plant response rating, Pigweed, Palmer ([19]; 31 g ai/ha, scale 0 to 100): 60; Plant response rating, Pigweed, Palmer ([19]; 62 g ai/ha, scale 0 to 100): 100; Plant response rating, Pigweed, Palmer ([19]; 125 g ai/ha, scale of 0 to 100): 100

— patent US11053204B2, “Pyrimidinyloxy benzene derivatives as herbicides” (FMC Corporation, priority 2015, dated 2021)
